Test results published in ChEMBL document CHEMBL1123817, “X-ray crystal structure of the opioid ligand naltrexonazine” (J Med Chem, 1987).

Biological target: Opioid receptor (Rattus norvegicus, UniProt P33533+P34975+P33535)
Test: Inhibition of [3H]DAMPGO binding was determined using standard binding assay in rat brain homogenates against opioid receptor
Assay type: tissue-based

Row | Compound | IC50 [nM]
1 | Oc1ccc2c3c1O[C@H]1/C(=N/N=C4\CC[C@@]5(O)[C@H]6Cc7ccc(O)c8c7[C@@]5(CCN6CC5CC5)[C@H]4O8)CC[C@@]4(O)[C@@H](C2)N(CC2CC2)CC[C@]314 (mixture of isomers) [NALTREXONAZINE] | 0.35
2 | Oc1ccc2c3c1O[C@H]1/C(=N/N=C4\CC[C@@]5(O)[C@H]6Cc7ccc(O)c8c7[C@@]5(CCN6CC5CC5)[C@H]4O8)CC[C@@]4(O)[C@@H](C2)N(CC2CC2)CC[C@]314 (stereo in doubt; anti) [NALTREXONAZINE] | 0.45
3 | Oc1ccc2c3c1O[C@H]1/C(=N/N=C4\CC[C@@]5(O)[C@H]6Cc7ccc(O)c8c7[C@@]5(CCN6CC5CC5)[C@H]4O8)CC[C@@]4(O)[C@@H](C2)N(CC2CC2)CC[C@]314 (stereo in doubt; syn) [NALTREXONAZINE] | 0.47
